Laboratory results from the supplement of paper PMC11451515.

Experiments:
Settings in all cases: 48 h
[1] = system: NOMO1; assay: cell viability relative to DMSO control; higher = less cytotoxic
In short: (§1)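 Viability is a per-plate percentage relative to DMSO wells, with cell-free wells as background. CellTiter-Glo One luminescence was read after 48 h at 37°C on 1536-well plates (5 μl) of NOMO1 or SEM (500 cells/well) or P12-Ichikawa (1000 cells/well) leukemia cells. The cells had been adapted for at least four passages in each medium and pin-dosed with library compounds in DMSO from 47 μM to 0.79 nM in 11 threefold steps.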

[2] = system: P12-Ichikawa; assay: as above
In short: as §1

[3] = system: SEM cells; assay: as above
In short: as §1

[4] = system: NOMO1; assay: AUC of viability dose-response curve (% viability x log10 dose units); higher = less sensitive
In short: (§2)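 Seeding of medium-adapted leukemia cells was at 500 or 1000 cells/well in 1536-well plates, followed by 48 h at 37°C with library compounds in DMSO at 11 threefold doses from 47 μM to 0.79 nM. CellTiter-Glo One luminescence was normalised per plate to DMSO and cell-free wells and fitted as a four-parameter log-logistic function of log10 dose. Area under the curve was integrated by trapezoidal rule, with curves exceeding full viability scaled and curves failing quality control removed.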

[5] = system: P12-Ichikawa; assay: as above
In short: as §2

[6] = system: SEM cells; assay: as above
In short: as §2

[7] = HPLM + 10% dialyzed FBS, 0.000781 µM
[8] = HPLM + 10% dialyzed FBS, 0.00234 µM
[9] = HPLM + 10% dialyzed FBS, 0.00702 µM
[10] = HPLM + 10% dialyzed FBS, 0.0211 µM
[11] = HPLM + 10% dialyzed FBS, 0.0632 µM
[12] = HPLM + 10% dialyzed FBS, 0.19 µM
[13] = HPLM + 10% dialyzed FBS, 0.569 µM
[14] = HPLM + 10% dialyzed FBS, 1.71 µM
[15] = HPLM + 10% dialyzed FBS, 5.12 µM
[16] = HPLM + 10% dialyzed FBS, 15.4 µM
[17] = HPLM + 10% dialyzed FBS, 46.1 µM
[18] = RPMI 5 mM glucose + 10% FBS, 0.000781 µM
[19] = RPMI 5 mM glucose + 10% FBS, 0.00234 µM
[20] = RPMI 5 mM glucose + 10% FBS, 0.00702 µM
[21] = RPMI 5 mM glucose + 10% FBS, 0.0211 µM
[22] = RPMI 5 mM glucose + 10% FBS, 0.0632 µM
[23] = RPMI 5 mM glucose + 10% FBS, 0.19 µM
[24] = RPMI 5 mM glucose + 10% FBS, 0.569 µM
[25] = RPMI 5 mM glucose + 10% FBS, 1.71 µM
[26] = RPMI 5 mM glucose + 10% FBS, 5.12 µM
[27] = RPMI 5 mM glucose + 10% FBS, 15.4 µM
[28] = RPMI 5 mM glucose + 10% FBS, 46.1 µM
[29] = RPMI 5 mM glucose + 10% dialyzed FBS, 0.000781 µM
[30] = RPMI 5 mM glucose + 10% dialyzed FBS, 0.00234 µM
[31] = RPMI 5 mM glucose + 10% dialyzed FBS, 0.00702 µM
[32] = RPMI 5 mM glucose + 10% dialyzed FBS, 0.0211 µM
[33] = RPMI 5 mM glucose + 10% dialyzed FBS, 0.0632 µM
[34] = RPMI 5 mM glucose + 10% dialyzed FBS, 0.19 µM
[35] = RPMI 5 mM glucose + 10% dialyzed FBS, 0.569 µM
[36] = RPMI 5 mM glucose + 10% dialyzed FBS, 1.71 µM
[37] = RPMI 5 mM glucose + 10% dialyzed FBS, 5.12 µM
[38] = RPMI 5 mM glucose + 10% dialyzed FBS, 15.4 µM
[39] = RPMI 5 mM glucose + 10% dialyzed FBS, 46.1 µM
[40] = RPMI 5 mM glucose + 10% dialyzed FBS

COC(=O)C/1=C(C)/N/C(=C(\C1C2=CC(=CC=C2)[N+]([O-])=O)C(=O)OCCCN3CCC(CC3)(C4=CC=CC=C4)C5=CC=CC=C5)C (stereo unspecified)
cell viability [1, 7]: 117% | cell viability [1, 8]: 114% | cell viability [1, 9]: 104% | cell viability [1, 10]: 104% | cell viability [1, 11]: 108% | cell viability [1, 12]: 114% | cell viability [1, 13]: 107% | cell viability [1, 14]: 107% | cell viability [1, 15]: 100% | cell viability [1, 16]: 102% | cell viability [1, 17]: 87.1% | cell viability [1, 18]: 101% | cell viability [1, 19]: 99.2% | cell viability [1, 20]: 93% | cell viability [1, 21]: 92.4% | cell viability [1, 22]: 97.7% | cell viability [1, 23]: 93.5% | cell viability [1, 24]: 88.3% | cell viability [1, 25]: 90.7% | cell viability [1, 26]: 83.3% | cell viability [1, 27]: 95.3% | cell viability [1, 28]: 81.8% | cell viability [1, 29]: 107% | cell viability [1, 30]: 93.8% | cell viability [1, 31]: 95.5% | cell viability [1, 32]: 97.1% | cell viability [1, 33]: 107% | cell viability [1, 34]: 109% | cell viability [1, 35]: 101% | cell viability [1, 36]: 94.4% | cell viability [1, 37]: 91.2% | cell viability [1, 38]: 90.5% | cell viability [1, 39]: 98.7% | cell viability [2, 7]: 109% | cell viability [2, 8]: 101% | cell viability [2, 9]: 104% | cell viability [2, 10]: 101% | cell viability [2, 11]: 106% | cell viability [2, 12]: 101% | cell viability [2, 13]: 96.1% | cell viability [2, 14]: 107% | cell viability [2, 15]: 97.3% | cell viability [2, 16]: 92.6% | cell viability [2, 17]: 95% | cell viability [2, 18]: 107% | cell viability [2, 19]: 103% | cell viability [2, 20]: 107% | cell viability [2, 21]: 81.4% | cell viability [2, 22]: 95.7% | cell viability [2, 23]: 95.3% | cell viability [2, 24]: 98.4% | cell viability [2, 25]: 89.6% | cell viability [2, 26]: 89.6% | cell viability [2, 27]: 92.4% | cell viability [2, 28]: 93% | cell viability [2, 29]: 103% | cell viability [2, 30]: 102% | cell viability [2, 31]: 99.3% | cell viability [2, 32]: 88.3% | cell viability [2, 33]: 98.8% | cell viability [2, 34]: 95% | cell viability [2, 35]: 91.4% | cell viability [2, 36]: 94.9% | cell viability [2, 37]: 94% | cell viability [2, 38]: 94.4% | cell viability [2, 39]: 94.6% | cell viability [3, 7]: 113% | cell viability [3, 8]: 94.1% | cell viability [3, 9]: 114% | cell viability [3, 10]: 42% | cell viability [3, 11]: 95.5% | cell viability [3, 12]: 104% | cell viability [3, 13]: 100% | cell viability [3, 14]: 109% | cell viability [3, 15]: 90.3% | cell viability [3, 16]: 94.8% | cell viability [3, 17]: 98.6% | cell viability [3, 18]: 93.4% | cell viability [3, 19]: 97.7% | cell viability [3, 20]: 98.2% | cell viability [3, 21]: 39.7% | cell viability [3, 22]: 90.3% | cell viability [3, 23]: 97.8% | cell viability [3, 24]: 98% | cell viability [3, 25]: 95.7% | cell viability [3, 26]: 104% | cell viability [3, 27]: 106% | cell viability [3, 28]: 91.1% | cell viability [3, 29]: 100% | cell viability [3, 30]: 92.3% | cell viability [3, 31]: 100% | cell viability [3, 32]: 43.2% | cell viability [3, 33]: 97.2% | cell viability [3, 34]: 95.6% | cell viability [3, 35]: 101% | cell viability [3, 36]: 112% | cell viability [3, 37]: 96.5% | cell viability [3, 38]: 100% | cell viability [3, 39]: 102% | AUC of viability dose-response curve ([4]; HPLM + 10% dialyzed FBS): 439 | AUC of viability dose-response curve ([4]; RPMI 5 mM glucose + 10% FBS): 441 | AUC of viability dose-response curve [4, 40]: 464 | AUC of viability dose-response curve ([5]; HPLM + 10% dialyzed FBS): 453 | AUC of viability dose-response curve ([5]; RPMI 5 mM glucose + 10% FBS): 429 | AUC of viability dose-response curve [5, 40]: 445 | AUC of viability dose-response curve ([6]; HPLM + 10% dialyzed FBS): 458 | AUC of viability dose-response curve ([6]; RPMI 5 mM glucose + 10% FBS): 439 | AUC of viability dose-response curve [6, 40]: 441

CN(C)CCOc1ccc(/C(=C(/CCCl)c2ccccc2)c2ccccc2)cc1
cell viability [1, 7]: 105% | cell viability [1, 8]: 116% | cell viability [1, 9]: 98% | cell viability [1, 10]: 94.7% | cell viability [1, 11]: 104% | cell viability [1, 12]: 126% | cell viability [1, 13]: 100% | cell viability [1, 14]: 115% | cell viability [1, 15]: 95.5% | cell viability [1, 16]: 68.5% | cell viability [1, 17]: 42.2% | cell viability [1, 18]: 106% | cell viability [1, 19]: 104% | cell viability [1, 20]: 111% | cell viability [1, 21]: 109% | cell viability [1, 22]: 103% | cell viability [1, 23]: 94.2% | cell viability [1, 24]: 115% | cell viability [1, 25]: 105% | cell viability [1, 26]: 99.1% | cell viability [1, 27]: 57.3% | cell viability [1, 28]: 39.6% | cell viability [1, 29]: 93.4% | cell viability [1, 30]: 110% | cell viability [1, 31]: 113% | cell viability [1, 32]: 116% | cell viability [1, 33]: 108% | cell viability [1, 34]: 125% | cell viability [1, 35]: 108% | cell viability [1, 36]: 120% | cell viability [1, 37]: 107% | cell viability [1, 38]: 76.9% | cell viability [1, 39]: 50.6% | cell viability [2, 7]: 102% | cell viability [2, 8]: 110% | cell viability [2, 9]: 107% | cell viability [2, 10]: 107% | cell viability [2, 11]: 106% | cell viability [2, 12]: 112% | cell viability [2, 13]: 111% | cell viability [2, 14]: 88.6% | cell viability [2, 15]: 67.2% | cell viability [2, 16]: 59.1% | cell viability [2, 17]: 34.9% | cell viability [2, 18]: 108% | cell viability [2, 19]: 109% | cell viability [2, 20]: 112% | cell viability [2, 21]: 108% | cell viability [2, 22]: 109% | cell viability [2, 23]: 102% | cell viability [2, 24]: 103% | cell viability [2, 25]: 83.1% | cell viability [2, 26]: 57.9% | cell viability [2, 27]: 50.5% | cell viability [2, 28]: 32.2% | cell viability [2, 29]: 102% | cell viability [2, 30]: 107% | cell viability [2, 31]: 112% | cell viability [2, 32]: 111% | cell viability [2, 33]: 109% | cell viability [2, 34]: 102% | cell viability [2, 35]: 112% | cell viability [2, 36]: 80.3% | cell viability [2, 37]: 58.1% | cell viability [2, 38]: 44.1% | cell viability [2, 39]: 42.7% | cell viability [3, 7]: 54.7% | cell viability [3, 8]: 92.8% | cell viability [3, 9]: 85.2% | cell viability [3, 10]: 94.2% | cell viability [3, 11]: 108% | cell viability [3, 12]: 85.6% | cell viability [3, 13]: 88% | cell viability [3, 14]: 94.6% | cell viability [3, 15]: 58.5% | cell viability [3, 16]: 34% | cell viability [3, 17]: 16.5% | cell viability [3, 18]: 54.5% | cell viability [3, 19]: 100% | cell viability [3, 20]: 74.7% | cell viability [3, 21]: 96.7% | cell viability [3, 22]: 98.4% | cell viability [3, 23]: 99.5% | cell viability [3, 24]: 100% | cell viability [3, 25]: 74.8% | cell viability [3, 26]: 39.5% | cell viability [3, 27]: 22.1% | cell viability [3, 28]: 11.9% | cell viability [3, 29]: 45.9% | cell viability [3, 30]: 96.8% | cell viability [3, 31]: 83.6% | cell viability [3, 32]: 102% | cell viability [3, 33]: 117% | cell viability [3, 34]: 97.5% | cell viability [3, 35]: 85.8% | cell viability [3, 36]: 85.2% | cell viability [3, 37]: 57.6% | cell viability [3, 38]: 36.1% | cell viability [3, 39]: 22.6% | AUC of viability dose-response curve ([4]; HPLM + 10% dialyzed FBS): 441 | AUC of viability dose-response curve ([4]; RPMI 5 mM glucose + 10% FBS): 437 | AUC of viability dose-response curve [4, 40]: 448 | AUC of viability dose-response curve ([5]; HPLM + 10% dialyzed FBS): 410 | AUC of viability dose-response curve ([5]; RPMI 5 mM glucose + 10% FBS): 393 | AUC of viability dose-response curve [5, 40]: 399 | AUC of viability dose-response curve ([6]; HPLM + 10% dialyzed FBS): 362 | AUC of viability dose-response curve ([6]; RPMI 5 mM glucose + 10% FBS): 344 | AUC of viability dose-response curve [6, 40]: 369
